Several values for one entry are separate records, joined by “and”; a condition that tells them apart may be missing. Equal values may be shown once. Toxic doses and inconclusive results are not listed.

The assay concerns P388 leukemia ip, CD2F1 mice, survival T/C. Nature of the assay: NCI In Vivo Anticancer Drug Screen. Data for tumor model P388 Leukemia (intraperitoneal) in CD2F1 (CDF1) mice. The settings on record: endpoint: median survival time, higher = longer survival. Summed up: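 Mice carrying the transplanted tumor received test compound or vehicle. Survival was recorded in each group, and the value is the treated-group measurement divided by that of the vehicle-treated control group.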

[1] abbreviates: dose: 100.0 mg/kg/injection, schedule: Q01DX009 (ip), vehicle: saline.
The mark [2] stands for this setting: dose: 200.0 mg/kg/injection, schedule: Q01DX009 (ip), vehicle: saline.
Setting [3] is: dose: 12.5 mg/kg/injection, schedule: Q01DX009 (ip), vehicle: saline with Tween-80.
[4] abbreviates: dose: 25.0 mg/kg/injection, schedule: Q01DX009 (ip), vehicle: saline with Tween-80.
Where [5] appears, read: dose: 50.0 mg/kg/injection, schedule: Q01DX009 (ip), vehicle: saline with Tween-80.
[6] abbreviates: dose: 50.0 mg/kg/injection, schedule: Q01DX009 (ip), vehicle: saline.
Setting [7] is: dose: 60.0 mg/kg/injection, schedule: Q01DX005 (ip), vehicle: saline with Tween-80.
The mark [8] stands for this setting: dose: 240.0 mg/kg/injection, schedule: Q01DX005 (ip), vehicle: saline with Tween-80.
Where [9] appears, read: dose: 60.0 mg/kg/injection, schedule: Q01DX005 (ip), vehicle: Klucel (hydroxypropylcellulose) (HPC).
The mark [10] stands for this setting: dose: 120.0 mg/kg/injection, schedule: Q01DX005 (ip), vehicle: Klucel (hydroxypropylcellulose) (HPC).

`NCCC(N)=O`: the T/C under setting [1] is 100 % of control; the T/C (dose: 100.0 mg/kg/injection, schedule: Q04DX003 (ip), vehicle: saline sonified) was 109 % of control; the T/C under setting [2] is 95 % of control; the T/C (dose: 200.0 mg/kg/injection, schedule: Q04DX003 (ip), vehicle: saline sonified) was 100 % of control; the T/C (dose: 400.0 mg/kg/injection, schedule: Q01DX009 (ip), vehicle: saline) was 100 % of control; the T/C (dose: 400.0 mg/kg/injection, schedule: Q04DX003 (ip), vehicle: saline sonified) was 100 % of control.
As for `Nc1ccc(Br)cc1C(=O)c1ccccc1`, the T/C by setting is: under setting [3], 97 % of control; under setting [4], 94 % of control; under setting [5], 94 % of control; under setting [6], 87 % of control; under setting [1], 89 % of control; under setting [2], 116 % of control.
For `O=C(NC(=S)Nc1cccc2c(O)cccc12)c1cccc(Br)c1`, the T/C is 91 % of control (dose: 15.0 mg/kg/injection, schedule: Q01DX005 (ip), vehicle: saline with Tween-80); 89 % of control (dose: 30.0 mg/kg/injection, schedule: Q01DX005 (ip), vehicle: saline with Tween-80); 91 % of control under setting [7]; 90 % of control and 94 % of control under setting [8].
As to `CC(=O)OC(C(=O)CCl)C(OC(C)=O)C(OC(C)=O)C(=O)CCl` (stereo not drawn), the T/C is, setting by setting: (dose: 12.5 mg/kg/injection, schedule: Q01DX009 (ip), vehicle: distilled water + Tween-80 + alcohol) 93 % of control; (dose: 25.0 mg/kg/injection, schedule: Q01DX009 (ip), vehicle: distilled water + Tween-80 + alcohol) 101 % of control; (dose: 50.0 mg/kg/injection, schedule: Q01DX009 (ip), vehicle: distilled water + Tween-80 + alcohol) 100 % of control.
Consider `CCCCCCCCCCCCCCCC(=O)N(CCCN(CC)CC)C(C)CCCN(CC)CC` (stereo not drawn), for which the T/C by setting is: (dose: 0.38 mg/kg/injection, schedule: Q01DX009 (ip), vehicle: water) 96 % of control; (dose: 0.75 mg/kg/injection, schedule: Q01DX009 (ip), vehicle: water) 98 % of control; (dose: 1.5 mg/kg/injection, schedule: Q01DX009 (ip), vehicle: water) 98 % of control; (dose: 3.0 mg/kg/injection, schedule: Q01DX009 (ip), vehicle: water) 95 % of control; (dose: 6.0 mg/kg/injection, schedule: Q01DX009 (ip), vehicle: water) 92 % of control.
On to `Nc1nnnn1-c1ccccc1Cl`, for which the T/C runs as follows: (dose: 100.0 mg/kg/injection, schedule: Q04DX003 (ip), vehicle: Klucel (hydroxypropylcellulose) (HPC)) 105 % of control; (dose: 200.0 mg/kg/injection, schedule: Q04DX003 (ip), vehicle: Klucel (hydroxypropylcellulose) (HPC)) 100 % of control; (dose: 400.0 mg/kg/injection, schedule: Q04DX003 (ip), vehicle: Klucel (hydroxypropylcellulose) (HPC)) 101 % of control.
Regarding `O.O=C(O)CN(CCN(CC(=O)O)CC(=O)O)CC(=O)O.[Rh+2]`, the T/C is 90 % of control (dose: 100.0 mg/kg/injection, schedule: Q01DX009 (ip), vehicle: saline sonified); 90 % of control (dose: 200.0 mg/kg/injection, schedule: Q01DX009 (ip), vehicle: saline sonified); 95 % of control (dose: 400.0 mg/kg/injection, schedule: Q01DX009 (ip), vehicle: saline sonified).
On to `O=C(NS(=O)(=O)c1ccc(Cl)cc1)c1ccccc1`, for which the T/C was 102 % of control and 91 % of control under setting [3]; 106 % of control under setting [4]; 100 % of control and 94 % of control under setting [5].
Take `Cc1cc(NC(=O)C(=O)CC(=O)c2ccc(Cl)c(Cl)c2)no1`: the T/C reads like this: (dose: 100.0 mg/kg/injection, schedule: Q01DX001 (ip), vehicle: saline with Tween-80) 101 % of control; (dose: 200.0 mg/kg/injection, schedule: Q01DX001 (ip), vehicle: saline with Tween-80) 108 % of control; (dose: 400.0 mg/kg/injection, schedule: Q01DX001 (ip), vehicle: saline with Tween-80) 97 % of control.
As for `CCCCC(NC(C)(C)C)c1ccccc1` (stereo not drawn), the T/C is, setting by setting: (dose: 100.0 mg/kg/injection, schedule: Q04DX003 (ip), vehicle: saline) 97 % of control; (dose: 200.0 mg/kg/injection, schedule: Q04DX003 (ip), vehicle: saline) 101 % of control; (dose: 400.0 mg/kg/injection, schedule: Q04DX003 (ip), vehicle: saline) 102 % of control.
With `CC1(C)OC2(C)CCC1C1C2N1C(=O)c1ccccc1` (stereo not drawn), the T/C (dose: 50.0 mg/kg/injection, schedule: Q01DX005 (ip), vehicle: Klucel (hydroxypropylcellulose) (HPC)) was 94 % of control; the T/C (dose: 100.0 mg/kg/injection, schedule: Q01DX005 (ip), vehicle: Klucel (hydroxypropylcellulose) (HPC)) is 102 % of control; the T/C (dose: 200.0 mg/kg/injection, schedule: Q01DX005 (ip), vehicle: Klucel (hydroxypropylcellulose) (HPC)) is 102 % of control.
For `CCOC(=O)Nc1cc2c(c(N)n1)N=C(CN(C)c1ccccc1)CN2`, the T/C is 112 % of control and 123 % of control (dose: 1.56 mg/kg/injection, schedule: Q01DX009 (ip), vehicle: Klucel (hydroxypropylcellulose) (HPC)); 100 % of control and 111 % of control (dose: 3.12 mg/kg/injection, schedule: Q01DX009 (ip), vehicle: Klucel (hydroxypropylcellulose) (HPC)); 106 % of control and 123 % of control (dose: 6.25 mg/kg/injection, schedule: Q01DX009 (ip), vehicle: Klucel (hydroxypropylcellulose) (HPC)); 124 % of control (dose: 12.5 mg/kg/injection, schedule: Q01DX009 (ip), vehicle: Klucel (hydroxypropylcellulose) (HPC)); 109 % of control and 123 % of control (dose: 25.0 mg/kg/injection, schedule: Q01DX009 (ip), vehicle: Klucel (hydroxypropylcellulose) (HPC)); 98 % of control (dose: 50.0 mg/kg/injection, schedule: Q01DX009 (ip), vehicle: Klucel (hydroxypropylcellulose) (HPC)). In addition, the T/C is 195 % of control (dose: 67.0 mg/kg/injection, schedule: Q01DX001 (ip), vehicle: Klucel (hydroxypropylcellulose) (HPC)) and 178 % of control (dose: 100.0 mg/kg/injection, schedule: Q01DX001 (ip), vehicle: Klucel (hydroxypropylcellulose) (HPC)).
Turning to `Cc1ncc(CO)c2c1OC(C)(C)OC2`, the T/C was 100 % of control (dose: 50.0 mg/kg/injection, schedule: Q01DX005 (ip), vehicle: saline with Tween-80); 107 % of control (dose: 100.0 mg/kg/injection, schedule: Q01DX005 (ip), vehicle: saline with Tween-80); 100 % of control (dose: 200.0 mg/kg/injection, schedule: Q01DX005 (ip), vehicle: saline with Tween-80).
Take `CC1(C)SC2C(NC(=O)C(N)c3ccc(O)cc3)C(=O)N2C1C(=O)O` (stereo not drawn): the T/C under setting [6] is 113 % of control, the T/C under setting [1] is 116 % of control and the T/C under setting [2] was 113 % of control.
Turning to `COc1ccccc1C1NC(c2ccccc2OC)C2CCCC1NC2=O` (stereo not drawn), the T/C was 98 % of control (dose: 100.0 mg/kg/injection, schedule: Q04DX003 (ip), vehicle: suspension in saline); 98 % of control (dose: 200.0 mg/kg/injection, schedule: Q04DX003 (ip), vehicle: suspension in saline); 98 % of control (dose: 400.0 mg/kg/injection, schedule: Q04DX003 (ip), vehicle: suspension in saline).
On to `CCC(c1ccc(OCc2ccccc2)cc1)c1cc2c(cc1OCCO)OCO2` (stereo not drawn), for which the T/C (dose: 50.0 mg/kg/injection, schedule: Q01DX005 (ip), vehicle: distilled water + Tween-80) is 87 % of control; the T/C (dose: 100.0 mg/kg/injection, schedule: Q01DX005 (ip), vehicle: distilled water + Tween-80) was 87 % of control; the T/C (dose: 200.0 mg/kg/injection, schedule: Q01DX005 (ip), vehicle: distilled water + Tween-80) was 89 % of control.
As for `O=C(c1ccccc1)c1ccccc1NCC(O)COc1ccc(Cl)cc1C(=O)c1ccccc1` (stereo not drawn), the T/C is 91 % of control and 96 % of control under setting [7]; 95 % of control (dose: 120.0 mg/kg/injection, schedule: Q01DX005 (ip), vehicle: saline with Tween-80); 88 % of control and 90 % of control under setting [8].
As for `c1cnc2c(c1)n[n+]1[n-]c3ccccc3n21`, the T/C runs as follows: under setting [9], 96 % of control; under setting [10], 91 % of control.
`CC(C)(C)OC(=O)CS(=O)(=O)Nc1ccccc1O`: the T/C runs as follows: under setting [9], 106 % of control; under setting [10], 86 % of control; (dose: 240.0 mg/kg/injection, schedule: Q01DX005 (ip), vehicle: Klucel (hydroxypropylcellulose) (HPC)) 97 % of control.
For `CC(C)=CC[P+](C)(c1ccccc1)c1ccccc1`, the T/C (dose: 1.56 mg/kg/injection, schedule: Q04DX003 (ip), vehicle: saline) is 101 % of control; the T/C (dose: 3.13 mg/kg/injection, schedule: Q04DX003 (ip), vehicle: saline) was 100 % of control; the T/C (dose: 6.25 mg/kg/injection, schedule: Q04DX003 (ip), vehicle: saline) is 89 % of control.

The values above are taken from PubChem BioAssay AID330 (DTP/NCI, 2004).
